Reference: US20230365537A1, “POLO LIKE KINASE 4 INHIBITORS” (ORIC Pharmaceuticals, Inc., priority 2021, published 2023)

Key:
[1] = biological target: human recombinant Aurora A (Homo sapiens (Human), UniProt O14965); assay: Aurora A Kinase Biochemical Assay (ADP-Glo); settings: ratio of Aurora A IC50 to PLK4 IC50 (selectivity)
Protocol: (§1) Activity of human recombinant Aurora A (ThermoFisher, cat #PR5935A) was measured by quantification of adenosine diphosphate (ADP) using the ADP-Glo Kinase Assay Kit (Promega, cat #V9102). […] 5 µL of 5.0 nM Aurora A in assay buffer (50 mM HEPES, pH 7.5, 0.01% Brij-35, 0.01% BSA, 10 mM MgCl2, 1 mM EGTA, 1 mM DTT) was added to the plates. Test compounds and Aurora A were incubated for 15 minutes at room temperature (RT). […] Reactions were stopped and the remaining ATP depleted by adding 10uL of ADP-Glo reagent (Promega, cat#V912B) and incubating for 40 minutes at RT. The simultaneous conversion of the remaining ADP to ATP and measurement of the newly synthesized ATP was achieved by addition of 20 µL Kinase Detection reagent (Promega, cat #V914B), incubation for 30 min at RT, and luminescence detection using the EnVision plate reader (PerkinElmer). […] The IC50 values reported in Table 2 were determined using four parameter non-linear regression curve fit.

[2] = biological target: human recombinant Aurora B (Homo sapiens (Human), UniProt Q96GD4); assay: Aurora B Kinase Biochemical Assay (ADP-Glo); settings: ratio of Aurora B IC50 to PLK4 IC50 (selectivity)
Sequence of human recombinant Aurora B (Q96GD4 whole entry): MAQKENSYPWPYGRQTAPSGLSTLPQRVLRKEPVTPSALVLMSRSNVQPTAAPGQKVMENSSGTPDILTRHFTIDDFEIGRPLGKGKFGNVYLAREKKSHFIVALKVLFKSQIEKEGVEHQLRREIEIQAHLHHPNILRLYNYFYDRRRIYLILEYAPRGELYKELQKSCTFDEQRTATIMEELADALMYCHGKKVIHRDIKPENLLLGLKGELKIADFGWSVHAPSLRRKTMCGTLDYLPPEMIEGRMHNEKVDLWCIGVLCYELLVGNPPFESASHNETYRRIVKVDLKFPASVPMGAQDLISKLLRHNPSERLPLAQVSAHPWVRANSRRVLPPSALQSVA
Protocol: as §1, with “Aurora B” for “Aurora A”, “cat #PR9210B)” for “cat #PR5935A)”, “of 20” for “of 5.0”

human recombinant PLK4 = human recombinant PLK4 (Homo sapiens (Human), UniProt O00444); assay: PLK4 Biochemical Assay (ADP-Glo); settings: 0.5 nM PLK4, 8.0 µM ATP, 4.7 µM MBP, 6 hours at RT
Sequence of human recombinant PLK4 (O00444 whole entry): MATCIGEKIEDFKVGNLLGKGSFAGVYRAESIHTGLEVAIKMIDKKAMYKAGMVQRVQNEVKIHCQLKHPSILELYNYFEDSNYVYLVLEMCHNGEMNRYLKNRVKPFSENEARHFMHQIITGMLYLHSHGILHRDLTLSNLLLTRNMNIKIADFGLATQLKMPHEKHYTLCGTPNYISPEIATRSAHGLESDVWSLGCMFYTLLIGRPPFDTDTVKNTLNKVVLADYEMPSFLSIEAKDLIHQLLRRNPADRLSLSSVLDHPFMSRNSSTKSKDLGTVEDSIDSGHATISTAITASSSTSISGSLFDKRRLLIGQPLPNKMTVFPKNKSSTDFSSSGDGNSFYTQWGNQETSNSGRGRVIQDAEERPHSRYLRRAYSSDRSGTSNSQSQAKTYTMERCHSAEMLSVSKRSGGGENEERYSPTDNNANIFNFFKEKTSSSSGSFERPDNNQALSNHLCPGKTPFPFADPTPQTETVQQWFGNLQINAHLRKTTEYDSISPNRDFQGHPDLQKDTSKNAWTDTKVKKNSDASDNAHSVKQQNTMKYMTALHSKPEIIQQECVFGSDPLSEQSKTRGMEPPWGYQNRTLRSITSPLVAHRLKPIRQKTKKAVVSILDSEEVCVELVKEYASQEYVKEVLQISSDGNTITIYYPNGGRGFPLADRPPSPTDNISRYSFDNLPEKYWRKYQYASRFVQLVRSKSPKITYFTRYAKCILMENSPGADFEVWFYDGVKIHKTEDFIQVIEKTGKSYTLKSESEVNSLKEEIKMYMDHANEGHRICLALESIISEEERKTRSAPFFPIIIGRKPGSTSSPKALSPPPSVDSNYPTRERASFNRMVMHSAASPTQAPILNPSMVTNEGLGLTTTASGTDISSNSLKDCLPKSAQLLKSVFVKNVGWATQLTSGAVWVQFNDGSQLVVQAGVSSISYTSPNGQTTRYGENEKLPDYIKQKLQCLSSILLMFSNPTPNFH
Protocol: as §1, with “recombinant PLK4” for “recombinant Aurora A”, “cat #PV6396)” for “cat #PR5935A)”, “of 1.0” for “of 5.0”, “nM PLK4 protein” for “nM Aurora A”, “and PLK4” for “and Aurora A”, “adding 10 µL” for “adding 10uL”

Sequence of human recombinant Aurora A (O14965 whole entry): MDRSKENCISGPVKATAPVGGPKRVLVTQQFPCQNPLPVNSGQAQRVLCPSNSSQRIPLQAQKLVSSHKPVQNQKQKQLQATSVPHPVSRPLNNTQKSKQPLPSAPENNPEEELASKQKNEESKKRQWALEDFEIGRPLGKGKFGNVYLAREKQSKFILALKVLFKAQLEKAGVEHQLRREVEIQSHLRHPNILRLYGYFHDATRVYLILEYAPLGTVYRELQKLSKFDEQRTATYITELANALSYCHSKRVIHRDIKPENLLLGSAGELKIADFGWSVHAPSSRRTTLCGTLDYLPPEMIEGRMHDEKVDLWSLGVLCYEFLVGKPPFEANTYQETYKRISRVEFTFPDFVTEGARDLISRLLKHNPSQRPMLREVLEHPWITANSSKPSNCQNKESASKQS

COc1ccc2c(c1)[C@]1(C[C@H]1c1ccc3c(Nc4ncncc4C)n[nH]c3c1)C(=O)N2 (racemic) [Example 2, racemic-5′-Methoxy-2-{3-[(5-methylpyrimidin-4-yl)amino]-1H-indazol-6-yl)spiro[cydopropane-1,3′-indol]-2′(1′H)-one]
[Aurora A IC50 (nM)]/[PLK4 IC50 (nM)] [1]: 318.03
[Aurora B IC50 (nM)]/[PLK4 IC50 (nM)] [2]: 15.6544
IC50 (human recombinant PLK4): 29.3 nM

CCc1cnc(C)nc1Nc1n[nH]c2cc([C@@H]3C[C@@]34C(=O)Nc3ccc(OC)cc34)ccc12 [Example 152, (1R,2S)-2-{3-[(5-ethyl-2-methylpyrimidin-4-yl)amino]-1H-indazol-6-yl}-5′-methoxyspiro[cyclopropane-1,3′-indol]-2′(1′H)-one]
[Aurora A IC50 (nM)]/[PLK4 IC50 (nM)] [1]: 502.7949
[Aurora B IC50 (nM)]/[PLK4 IC50 (nM)] [2]: 107.8116
IC50 (human recombinant PLK4): 7.16 nM

COc1ccc2c(c1)[C@]1(C[C@H]1c1ccc3c(Nc4cc(OCCO)ncn4)n[nH]c3c1)C(=O)N2 [Example 38, (1R,2S)-2-(3-{[6-(2-hydroxyethoxy)pyrimidin-4-yl]amino}-1H-indazol-6-yl)-5′-methoxyspiro[cyclopropane-1,3′-indol]-2′(1′H)-one]
[Aurora A IC50 (nM)]/[PLK4 IC50 (nM)] [1]: 43.69
[Aurora B IC50 (nM)]/[PLK4 IC50 (nM)] [2]: 2.761
IC50 (human recombinant PLK4): 14.1 nM

COc1ccc2c(c1)[C@]1(C[C@H]1c1ccc3c(Nc4ncc(C(=O)N(C)C)nc4OC)n[nH]c3c1)C(=O)N2 [Example 236, 6-methoxy-5-({6-[(1R,2S)-5′-methoxy-2′-oxo-1′,2′-dihydrospiro[cyclopropane-1,3′-indol]-2-yl]-1H-indazol-3-yl}amino)-N,N-dimethylpyrazine-2-carboxamide]
[Aurora A IC50 (nM)]/[PLK4 IC50 (nM)] [1]: 949.6021
[Aurora B IC50 (nM)]/[PLK4 IC50 (nM)] [2]: 114.8983
IC50 (human recombinant PLK4): 2.26 nM

COc1ccc2c(c1)[C@]1(C[C@H]1c1ccc3c(Nc4cnn(C)c4)n[nH]c3c1)C(=O)N2 [Example 65]
[Aurora A IC50 (nM)]/[PLK4 IC50 (nM)] [1]: 82.48
[Aurora B IC50 (nM)]/[PLK4 IC50 (nM)] [2]: 5.356
IC50 (human recombinant PLK4): 44.2 nM

COc1ccc2c(c1)[C@]1(C[C@H]1c1ccc3c(Nc4cn(C)nc4C#N)n[nH]c3c1)C(=O)N2 [Example 66, 4-({6-[(1R,2S)-5′-methoxy-2′-oxo-1′,2′-dihydrospiro[cyclopropane-1,3′-indol]-2-yl]-1H-indazol-3-yl}amino)-1-methyl-1H-pyrazole-3-carbonitrile]
[Aurora A IC50 (nM)]/[PLK4 IC50 (nM)] [1]: 21.37
[Aurora B IC50 (nM)]/[PLK4 IC50 (nM)] [2]: 7.607
IC50 (human recombinant PLK4): 2340 nM

COc1cnc(C)nc1Nc1n[nH]c2cc([C@@H]3C[C@@]34C(=O)Nc3ccc(OC(F)(F)F)cc34)ccc12 [Example 138, (1R,2S)-2-{3-[(5-methoxy-2-methylpyrimidin-4yl)amino]-1H-indazol-6-yl}-5′-(trifluoromethoxy)spiro[cyclopropane-1,3′-indol]-2′(1′H)-one]
[Aurora A IC50 (nM)]/[PLK4 IC50 (nM)] [1]: 70
[Aurora B IC50 (nM)]/[PLK4 IC50 (nM)] [2]: 36
IC50 (human recombinant PLK4): 27.3 nM

COc1ccc2c(c1)[C@]1(C[C@H]1c1ccc3c(Nc4nc(C)nc5c4C(C)SC5)n[nH]c3c1)C(=O)N2 (single isomer, unassigned) [Example 211]
[Aurora A IC50 (nM)]/[PLK4 IC50 (nM)] [1]: 531.9935
[Aurora B IC50 (nM)]/[PLK4 IC50 (nM)] [2]: 218.4107
IC50 (human recombinant PLK4): 8.66 nM

COc1cnc(C)nc1Nc1n[nH]c2cc([C@@H]3C[C@]34C(=O)Nc3ccc(OC(F)(F)F)cc34)ccc12 [Example 139, (1S,2S)-2-{3-[(5-methoxy-2-methylpyrimidin-4-yl)amino]-1H-indazol-6-yl}-5′-(trifluoromethoxy)spiro[cyclopropane-1,3′-indol]-2′(1′H)-one]
[Aurora A IC50 (nM)]/[PLK4 IC50 (nM)] [1]: 7.4
[Aurora B IC50 (nM)]/[PLK4 IC50 (nM)] [2]: 9.6
IC50 (human recombinant PLK4): 3180 nM

COc1ccc2c(c1)[C@]1(C[C@H]1c1ccc3c(Nc4ncccc4OC)n[nH]c3c1)C(=O)N2 [Example 17, (1R,2S)-5′-methoxy-2-{3-[(3-methoxypyridin-2-yl)amino]-1H-indazol-6-yl}spiro[cyclopropane-1,3′-indol]-2′(1′H)-one]
[Aurora A IC50 (nM)]/[PLK4 IC50 (nM)] [1]: 1145.911
[Aurora B IC50 (nM)]/[PLK4 IC50 (nM)] [2]: 34.9
IC50 (human recombinant PLK4): 4.3 nM

COc1ccc2c(c1)[C@]1(C[C@H]1c1ccc3c(Nc4nc(N(C)C)ncc4C)n[nH]c3c1)C(=O)N2 [Example 182, (1R,2S)-2-(3-{[2-(dimethylamino)-5-methylpyrimidin-4-yl]amino}-1H-indazol-6-yl)-5′-methoxyspiro[cyclopropane-1,3′-indol]-2′(1′H)-one]
[Aurora A IC50 (nM)]/[PLK4 IC50 (nM)] [1]: 53.6821
[Aurora B IC50 (nM)]/[PLK4 IC50 (nM)] [2]: 198.8774
IC50 (human recombinant PLK4): 4.45 nM

COc1ccc2c(c1)[C@]1(C[C@H]1c1ccc3c(Nc4cnc(P(C)(C)=O)cc4OC)n[nH]c3c1)C(=O)N2 [Example 249, (1R,2S)-2-(3-{[6-(dimethylphosphoryl)-4-methoxypyridin-3-yl]amino}-1H-indazol-6-yl)-5′-methoxyspiro[cyclopropane-1,3′-indol]-2′(1′H)-one]
[Aurora A IC50 (nM)]/[PLK4 IC50 (nM)] [1]: 2585.7077
[Aurora B IC50 (nM)]/[PLK4 IC50 (nM)] [2]: 451.7751
IC50 (human recombinant PLK4): 6.56 nM

COc1ccc2c(c1)[C@]1(C[C@H]1c1ccc3c(Nc4nc(CC(C)(C)O)nc(N5CCOCC5)c4OC)n[nH]c3c1)C(=O)N2 [Example 93, (1R,2S)-2-(3-{[2-(2-hydroxy-2-methylpropyl)-5-methoxy-6-(morpholin-4-yl)pyrimidin-4-yl]amino}-1H-indazol-6-yl)-5′-methoxyspiro[cyclopropane-1,3′-indol]-2′(1′H)-one]
[Aurora A IC50 (nM)]/[PLK4 IC50 (nM)] [1]: 1733.361
[Aurora B IC50 (nM)]/[PLK4 IC50 (nM)] [2]: 1055.053
IC50 (human recombinant PLK4): 24.3 nM

COc1cnc(C)nc1Nc1n[nH]c2cc([C@@H]3C[C@@]34C(=O)Nc3ccccc34)ccc12 [Example 124, (1R,2S)-2-{3-[(5-methoxy-2-methylpyrimidin-4-yl)amino]-1H-indazol-6-yl}spiro[cyclopropane-1,3′-indol]-2′(1′H)-one]
[Aurora A IC50 (nM)]/[PLK4 IC50 (nM)] [1]: 38.03
[Aurora B IC50 (nM)]/[PLK4 IC50 (nM)] [2]: 35.9
IC50 (human recombinant PLK4): 13.6 nM

CCP(=O)(CC)c1ccc(OC)c(Nc2n[nH]c3cc([C@@H]4C[C@@]45C(=O)Nc4ccc(OC)cc45)ccc23)c1 [Example 261, (1R,2S)-2-{3-[5-(diethylphosphoryl)-2-methoxyanilino]-1H-indazol-6-yl}-5′-methoxyspiro[cyclopropane-1,3′-indol]-2′(1′H)-one]
[Aurora A IC50 (nM)]/[PLK4 IC50 (nM)] [1]: 5824.2730
[Aurora B IC50 (nM)]/[PLK4 IC50 (nM)] [2]: 2807.8381
IC50 (human recombinant PLK4): 7.91 nM

COc1ccc2c(c1)[C@]1(C[C@H]1c1ccc3c(Nc4nc(C)ncc4OC(C)C)n[nH]c3c1)C(=O)N2 [Example 136, (1R,2S)-5′-methoxy-2-[3-({2-methyl-5-[(propan-2-yl)oxy]pyrimidin-4-yl}amino)-1H-indazol-6-yl]spiro[cyclopropane-1,3′-indol]-2′(1′H)-one]
[Aurora A IC50 (nM)]/[PLK4 IC50 (nM)] [1]: 2573.3401
[Aurora B IC50 (nM)]/[PLK4 IC50 (nM)] [2]: 979.4132
IC50 (human recombinant PLK4): 19.4 nM

COc1ccc2c(c1)[C@]1(C[C@H]1c1ccc3c(Nc4nc(C5CCOC5)ncc4OC)n[nH]c3c1)C(=O)N2 (single isomer, unassigned) [Example 200]
[Aurora A IC50 (nM)]/[PLK4 IC50 (nM)] [1]: 906.0197
[Aurora B IC50 (nM)]/[PLK4 IC50 (nM)] [2]: 523.3415
IC50 (human recombinant PLK4): 3.26 nM

COc1ccc2c(c1)[C@]1(C[C@H]1c1ccc3c(Nc4cc(C)nn4CC(F)F)n[nH]c3c1)C(=O)N2 [Example 112, (1R,2S)-2-(3-{[1-(2,2-difluoroethyl)-3-methyl-1H-pyrazol-5-yl]amino}-1H-indazol-6-yl)-5′-methoxyspiro[cyclopropane-1,3′-indol]-2′(1′H)-one]
[Aurora A IC50 (nM)]/[PLK4 IC50 (nM)] [1]: 197.5105
[Aurora B IC50 (nM)]/[PLK4 IC50 (nM)] [2]: 121.8987
IC50 (human recombinant PLK4): 23.7 nM
